Converted amounts (≈) assume the structure as drawn. Read-outs that look alike come from different tables or passages of the source.
Experiments:
[1] = Compound solubility determination (gross and equilibrium solubility; FaSSIF, FeSSIF, pH 7.4 PBS, pH 1.0 0.1N HCl, pH 4.5 sodium citrate); format: physicochemical; settings: thermodynamic from solid
Method: Compound Solubility Determination
An amount of 3 mg solid compound with LC-MS purity ≧95% was required. This amount was split between 3 different glass vials (1.8 ml volume each), placing 1 mg compound into each one.
Organic solvents of HPLC grade were used. Ultra pure water (Milli-Q grade) was used. Buffers were prepared with ultra pure water and filtered using 0.45μ cameo filters. The compositions of each solvent employed in this assay are described below (part III).
2. Determination of Equilibrium Solubility (Assuming Chemical Stability in the Desired Solvent is not a Problem).
For each of the three vial samples prepared as described above, in which the amount of compound was totally dissolved, the following procedure was subsequently carried out: • a) A small amount (approx. 0.1 mg) of additional solid compound was added to the vial to maintain an excess of the compound in the mixture in the form of undissolved solid. • b) The samples were magnetically stirred for 24 hr. If required, additional solid compound (0.1 mg) was added to maintain excess of it and then the samples were stirred again. • c) Then the samples were filtered (Millipore Milex filters nylon 0.2 um) and three aliquots were taken (one from each of the three vials) and analysed by LC-MS. • d) The pH of the final solution in each sample was measured with a pH-meter (WTW pH330i and a pH-electrode Sentix 41).
3. LC-MS Assay for Analytical Quantification
All filtered aliquots were analysed by LC-MS. The analysis was carried out with a Luna 5 μC18 (2) column 4.6×150 mm, using a HP1100 HPLC instrument interfaced with a Waters ZMD-2000 MS spectrometer. The concentration of the final sample as prepared above was calculated from that of a reference calibration curve obtained from serial dilutions of a 2 mM solution of the compound under investigation in DMSO (Aldrich cat. ref.: 27685-5) stock solution.
The analysis of all LC-MS data was performed with MassLynx 3.4 software. Statistical and graphic analysis of data was performed using Microsoft Excel. The concentration (uM) and solubility (ug/ml) for each compound was calculated using the peak areas from the sample and those from the calibration curve.
A) FaSSIF is a solvent which simulates the Fasted State of the Intestinal Fluid. (FaSSIF: Fasted State Simulated Intestinal Fluid).
B) FeSSIF is a solvent which simulates the Fed State of the Intestinal Fluid. (FeSSIF: Fed State Simulated Intestinal Fluid).
C) Solubility at pH 7.4 was determined in phosphate buffered saline (PBS) (Fluka cat. ref: 79383)
D) Solubility at pH 1.0 was determined in 0.1N HCl solution (Scharlau AL0744010C)
E) Solubility at pH 4.5 was determined in sodium citrate 0.5M solution. (Aldrich 25, 127-5)

Plasmodium falciparum = assay: In vitro anti-malarial activity against Plasmodium falciparum, IC50 assay / [3H]-hypoxanthine incorporation assay; format: cell-based; settings: Erythrocyte, parasitized red blood cells, 48 hours
[2] = aqueous buffer, pH 4.5 (Na citrate), read-out: Solubility at pH 4.5 (Na citrate)
[3] = aqueous buffer, pH 7.4 (PBS), read-out: Solubility at pH 7.4 (PBS)
[4] = fassif, read-out: Solubility in FaSSIF
[5] = simulated gastric fluid, pH 1 (HCl), read-out: Solubility at pH 1 (HCl)
[6] = 0.1N HCl solution, simulated gastric fluid, pH 1 (HCl), read-out: Solubility at pH 1 (HCl)
[7] = FaSSIF (fasted state simulated intestinal fluid), fassif, read-out: Solubility in FaSSIF
[8] = phosphate buffered saline (PBS), aqueous buffer, pH 7.4 (PBS), read-out: Solubility at pH 7.4 (PBS)
[9] = sodium citrate 0.5M solution, aqueous buffer, pH 4.5 (Na citrate), read-out: Solubility at pH 4.5 (Na citrate)

Structure (SMILES)	IC50 (Plasmodium falciparum) [µg/mL]	solubility at 24 h [1, 6] [µg/mL]	solubility at 24 h [1, 7] [µg/mL]	solubility at 24 h [1, 8] [µg/mL]	solubility at 24 h [1, 9] [µg/mL]	solubility at 24 h ([1]; FeSSIF (fed state simulated intestinal fluid), fessif, read-out: Solubility in FeSSIF) [µg/mL]	solubility at 24 h [1, 2] [µg/mL]	solubility at 24 h [1, 3] [µg/mL]	solubility at 24 h [1, 4] [µg/mL]	solubility at 24 h ([1]; fessif, read-out: Solubility in FeSSIF) [µg/mL]	solubility at 24 h [1, 5] [µg/mL]
CCCCCCCCCc1cnc(-c2c(C)[nH]c(C)c(Cl)c2=O)nc1 [Example 50, 3-Chloro-2,6-dimethyl-5-(5-nonyl-2-pyrimidinyl)-4(1H)-pyridinone]	< 0.125						< 1	< 1	< 1	1 to 5 (≈ 2.76 to 13.8 µM)	5 to 10 (≈ 13.8 to 27.6 µM)
Cc1[nH]c(C)c(-c2ccc(-c3ccc(F)cc3)nc2)c(=O)c1Br [Example 22, 5-Bromo-6′-(4-fluorophenyl)-2,6-dimethyl-3,3′-bipyridin-4(1H)-one]	< 0.125	≥ 50	1 to 5 (≈ 2.68 to 13.4 µM)	1 to 5 (≈ 2.68 to 13.4 µM)	1 to 5 (≈ 2.68 to 13.4 µM)						
Cc1[nH]c(C)c(-c2ccc(-c3ccc(C(F)(F)F)cc3)nc2)c(=O)c1Br [Example 16, 5-Bromo-2,6-dimethyl-6′-{4-[trifluoromethyl]phenyl}-3,3′-bipyridin-4(1H)-one]	< 0.125	10 to 50 (≈ 23.6 to 118 µM)	< 1	< 1	< 1						
CCCCc1ccc(-c2ccc(-c3c(C)[nH]c(C)c(Br)c3=O)cn2)cc1 [Example 26, 5-Bromo-6′-(4-n-butylphenyl)-2,6-dimethyl-3,3′-bipyridin-4(1H)-one]	< 0.125	10 to 50 (≈ 24.3 to 122 µM)	10 to 50 (≈ 24.3 to 122 µM)	< 1	< 1						
Cc1[nH]c(C)c(-c2ccc(OCc3ccc(C(F)(F)F)cc3)nc2)c(=O)c1Cl [Example 10, 5-Chloro-2,6-dimethyl-6′-{[4-(trifluoromethyl)benzyl]oxy}-3,3′-bipyridin-4(1H)-one]	< 0.125						< 1	< 1	< 1		5 to 10 (≈ 12.2 to 24.5 µM)
Cc1[nH]c(C)c(-c2ccc(-c3ccccc3C(F)(F)F)nc2)c(=O)c1Br [Example 18, 5-Bromo-2,6-dimethyl-6′-{2-[trifluoromethyl]phenyl}-3,3′-bipyridin-4(1H)-one]	< 0.125	≥ 50	10 to 50 (≈ 23.6 to 118 µM)	10 to 50 (≈ 23.6 to 118 µM)	10 to 50 (≈ 23.6 to 118 µM)						
Cc1[nH]c(C)c(-c2ccc(-c3ccc(F)cc3)nc2)c(=O)c1Cl [Example 36, 5-Chloro-6′-(4-fluorophenyl)-2,6-dimethyl-3,3′-bipyridin-4(1H)-one]	< 0.125	≥ 50	1 to 5 (≈ 3.04 to 15.2 µM)	1 to 5 (≈ 3.04 to 15.2 µM)	1 to 5 (≈ 3.04 to 15.2 µM)						

Second part, led by results:

IC50 (Plasmodium falciparum) [µg/mL]	solubility at 24 h [1, 6] [µg/mL]	solubility at 24 h [1, 7] [µg/mL]	solubility at 24 h [1, 8] [µg/mL]	solubility at 24 h [1, 9] [µg/mL]	solubility at 24 h ([1]; FeSSIF (fed state simulated intestinal fluid), fessif, read-out: Solubility in FeSSIF) [µg/mL]	Structure (SMILES)	solubility at 24 h [1, 2] [µg/mL]	solubility at 24 h [1, 3] [µg/mL]	solubility at 24 h [1, 4] [µg/mL]	solubility at 24 h ([1]; fessif, read-out: Solubility in FeSSIF) [µg/mL]	solubility at 24 h [1, 5] [µg/mL]
< 0.125	≥ 50	10 to 50 (≈ 30.4 to 152 µM)	10 to 50 (≈ 30.4 to 152 µM)	10 to 50 (≈ 30.4 to 152 µM)		Cc1[nH]c(C)c(-c2ccc(-c3ccccc3F)nc2)c(=O)c1Cl [Example 37, 5-Chloro-6′-(2-fluorophenyl)-2,6-dimethyl-3,3′-bipyridin-4(1H)-one]					
< 0.125	≥ 50	5 to 10 (≈ 12.5 to 25 µM)	1 to 5 (≈ 2.5 to 12.5 µM)	5 to 10 (≈ 12.5 to 25 µM)		Cc1[nH]c(C)c(-c2ccc(-c3ccc4c(c3)OCO4)nc2)c(=O)c1Br [Example 53]					
< 0.125	≥ 50	1 to 5 (≈ 2.52 to 12.6 µM)	< 1	< 1	10 to 50 (≈ 25.2 to 126 µM)	Cc1[nH]c(C)c(-c2ccc(-c3cc(C(F)(F)F)ccc3F)nc2)c(=O)c1Cl [Example 56, 5-chloro-6′-[2-fluoro-5-(trifluoromethyl)phenyl]-2,6-dimethyl-3,3′-bipyridin-4(1H)-one]					
< 0.125	≥ 50	10 to 50 (≈ 24.6 to 123 µM)	5 to 10 (≈ 12.3 to 24.6 µM)	10 to 50 (≈ 24.6 to 123 µM)		Cc1[nH]c(C)c(-c2ccc(CCc3ccc(C(F)(F)F)cc3)nc2)c(=O)c1Cl [Example 45, 5-Chloro-2,6-dimethyl-6′-{2-[4-(trifluoromethyl)phenyl]ethyl}-3,3′-bipyridin-4(1H)-one]					
